Assay results as given in US7432302B2, “Composition containing polyamine transport inhibitor and use thereof” (MediQuest Therapeutics, Inc., priority 2001, dated 2008).
Where two headings read alike, the source gives them in different places.

What was measured:
polyamine transporter = experiment: Polyamine transport inhibition (3H-spermidine uptake, MDA-MB-231 cells); type: cell-based, human
Description: The Ki values were determined using double reciprocal Lineweaver-Burke plot analyses.

[1] = tested on: cell growth in the presence of DFMO; experiment: Growth inhibition assay in combination with DFMO; type: cell-based; settings: for EC50: 144 h; on Ave EC50 Value: 0.5 µM SPD
Description: Medias were obtained from Mediatech, Inc. (Hemdon, Va.) and serums from Gibco BRL (Gaithersburg, Md.). 50 U/ml penicillin, 50 μg/ml streptomycin and 2 mM L-glutamine (all from Bio Whittaker, Walkersville, Md.) were included in all cultures. […] When cells were cultured with polyamines or ORI compounds, 1 mM aminoguanidine (AG; Sigma) was included to inhibit serum amine oxidase activity.

ODC = target: T1, ODC (Rattus norvegicus, UniProt P09057); settings: cited from earlier work
T1 construct: from tissue; host or cells: rat liver
T1 sequence (P09057 1-461): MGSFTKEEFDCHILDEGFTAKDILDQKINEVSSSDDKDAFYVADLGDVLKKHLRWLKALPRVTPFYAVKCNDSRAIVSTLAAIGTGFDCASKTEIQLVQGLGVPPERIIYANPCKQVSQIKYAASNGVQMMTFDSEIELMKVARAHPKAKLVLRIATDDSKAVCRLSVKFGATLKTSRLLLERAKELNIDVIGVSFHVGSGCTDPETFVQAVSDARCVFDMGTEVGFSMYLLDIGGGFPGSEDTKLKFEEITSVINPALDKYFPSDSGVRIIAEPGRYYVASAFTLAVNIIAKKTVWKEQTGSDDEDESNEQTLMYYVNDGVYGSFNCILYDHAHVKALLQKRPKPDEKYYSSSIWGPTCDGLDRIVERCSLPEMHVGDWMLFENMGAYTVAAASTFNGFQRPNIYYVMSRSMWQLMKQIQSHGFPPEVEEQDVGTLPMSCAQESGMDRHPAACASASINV

ODC activity = settings: at 4 to 5 hr after TPA treatment; cited from earlier work
spermine synthase = target: T2, spermine synthase (Homo sapiens, UniProt P52788); settings: cited from earlier work
T2 sequence (P52788 1-366): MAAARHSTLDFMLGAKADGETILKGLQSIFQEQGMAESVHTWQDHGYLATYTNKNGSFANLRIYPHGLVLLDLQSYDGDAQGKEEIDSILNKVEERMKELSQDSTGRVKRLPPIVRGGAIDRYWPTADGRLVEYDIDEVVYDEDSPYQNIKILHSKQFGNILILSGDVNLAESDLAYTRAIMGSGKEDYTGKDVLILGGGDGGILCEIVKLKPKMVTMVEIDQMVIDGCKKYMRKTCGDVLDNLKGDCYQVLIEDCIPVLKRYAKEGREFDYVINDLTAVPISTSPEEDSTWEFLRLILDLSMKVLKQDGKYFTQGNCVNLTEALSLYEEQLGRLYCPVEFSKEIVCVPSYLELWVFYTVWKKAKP

cultured follicles = settings: in culture media: DFMO 500 μM; N-butyl-1,3-diaminopropane 50 μM; cited from earlier work
[2] = tested on: epidermal ornithine decarboxylase activity; settings: mice, 0.5% BHT in food for two weeks, UV radiation; cited from earlier work

## CCCCCCCCCCCCCCCC(=O)NCCCC[C@H](N)C(=O)NCCCNCCCCNCCCN [IA4]
Polyamine transporter
  potency in transporter inhibition assay: demonstrated potency
[1]
  potency in cell growth inhibition assay: demonstrated potency
[1]; read-out: Ave EC50 Value
  EC50: 130 nM
[1]; read-out: Ave EC50 value
  EC50: 130 nM

## NCCCC(N)(CCl)C(=O)O (stereo not shown) [—CH2Cl]
ODC; Table 1, at 100 μM
  t1/2: t1/2 = 22 min
ODC; Table 1 substrate analogs, apparent dissociation constant, rat liver enzyme
  Ki value: No satd kinetics

## CCCCCCCCCCCCCC(=O)O[C@@H]1[C@@H](C)[C@@]2(O)[C@@H](C=C(CO)C[C@]3(O)C(=O)C(C)=C[C@@H]23)[C@@H]2C(C)(C)[C@]12OC(C)=O [TPA, 12-O-tetradecanoyl-phorbol-13-acetate]
ODC activity
  peak ODC activity greater than control: 230 fold

## CCCCNCCCN [N-butyl-1,3-diaminopropane]
Spermine synthase
  Ki: 11.9 nM
Cultured follicles
  effect on the growth of cultured follicles: no effect

## Cc1cc(C(C)(C)C)c(O)c(C(C)(C)C)c1 [BHT, butylated hydroxytoluene]
[2]
  inhibition of measured ODC activity: 70%
